# A melting point compilation (Tetko et al.; mined from patent text by program, amines drawn as free bases though some values may be those of a salt)
row,SMILES,melting point
1,CCOC(=O)CNC(=O)C(CCl)NC(=O)OC(C)(C)C (stereo not given),71.5 to 72 °C
2,CC(C)OCCOc1ccc(-c2ccc3c(c2)C=C(C(=O)O)CCN3C=O)cc1,165 to 166 °C
3,CCNc1nc2c(N)nc3ccccc3c2n1CC(C)(C)O,233 to 235 °C
4,COc1ccc(OC)c2c(C#C[Si](C)(C)C)c3ccccc3nc12,110 to 111 °C
5,O=C1c2ccccc2-c2c1c1ccccc1c(=O)n2CCCCCCCNS(=O)(=O)c1ccc(Br)cc1,160 to 161 °C
6,CCOC(=O)C(C)=CC=CC(C)=CC=CC=C(C)C=CC=C(C)C1OCC(C)(C)CO1,158 °C
7,C=CC(O)c1[nH]c(=O)c2c(ccc3nc(Nc4c(Cl)cccc4Cl)n(C)c32)c1C (stereo not given),235 to 236 °C
8,Nc1n[nH]cc1C(=O)c1ccccc1,177 to 179 °C
9,Nc1ccc(OC2(c3ccccc3)CCN(Cc3ccccc3)CC2)cc1,124 to 126 °C
10,COc1cc2ncnc(N3CCN(C(=O)NCCc4ccc(Br)cc4)CC3)c2cc1OC,174 to 175 °C
11,CC1(C)C2CC[C@@]1(C)C(=O)C(C(=O)Nc1ccc(Cl)cc1)C2=O (stereo not given in full),88 to 90 °C
12,Nc1nc2ccccc2c2c1ncn2CCCCNC(=O)c1cccnc1,189 to 190 °C
13,CC(C)Cn1c(C(C)O)nc2cnc3ccccc3c21 (stereo not given),152 to 166 °C
14,O=C(Cc1cccc(C(=O)O)c1)Nc1cccc(/C=C/c2nc(C3CCC3)cs2)c1,208 to 209 °C
15,Cc1ccc2c(c1)Cn1nnnc1C(=O)N2,244 to 247 °C
16,CCCCC(C(=O)O)c1cccc(C(=O)c2cc3cc(C(=O)O)sc3s2)c1 (stereo not given),208 °C
17,Cn1c(=O)cc(C(=O)O)c2cc(C(=O)c3ccc(Cl)cc3)ccc21,> 260 °C
18,Nc1ccc(OS(=O)(=O)c2ccc(-n3ccnc3)cc2)cc1[N+](=O)[O-],209 °C
19,COc1cc(C2C3=C(COC3=O)N(Cc3ccc([N+](=O)[O-])cc3)c3cc4c(cc32)OCO4)cc(OC)c1O (stereo not given),193 °C
20,CCOc1cc(C(=O)OC)on1,77 to 79 °C
21,Cn1c(=O)c2c(ncn2CCCN2CCC(NC(=O)c3ccc(F)cc3)CC2)n(C)c1=O,192 to 193 °C
22,N#Cc1ccccc1N1CCN(Cc2cn3cc(Cl)ccc3n2)CC1,167 to 169 °C
23,CN1Cc2cscc2Nc2cc(Cl)c(Cl)cc21,92 to 93 °C
24,Cc1nnc(-c2ccc3occ(-c4cnn(Cc5ccccc5)c4)c3c2)o1,151 to 152 °C
25,N#CCCCC(=O)c1cc2ccccc2o1,79 °C
26,O=C(NC(NC(=S)Nc1cccnc1)C(Cl)(Cl)Cl)c1ccc(I)cc1 (stereo not given),197 to 199 °C
27,CN1CCC2(CC1)c1ccccc1Oc1c(N)cccc12,173 to 174 °C
28,CC(=O)Nc1cccc(-n2nc(C#N)c(=O)n(Cc3ccc(Cl)cc3)c2=O)c1,196 °C

# Other lines, results leading:
row,melting point,SMILES
1,162 °C,Cc1nc2sccn2c(=O)c1CCN1CCC(=C2c3ccc(F)cc3CCn3ncnc32)CC1
2,103 to 105 °C,CON=CCOc1ccccc1S(N)(=O)=O
3,198 to 200 °C,COc1ccc(CNC=C2C(=O)Nc3cc(OC)c(OC)cc32)cc1OC
4,92 to 94 °C,COC(=O)COc1ccc(SCc2cc(-c3ccc(Cl)cc3)no2)c2c1CCC2
5,147 to 148 °C,COC(=O)CCCc1cc2nc(Cl)ccc2n1S(=O)(=O)c1cccc(-c2cncs2)c1
6,64 to 70 °C,O=C1CCCC(Sc2ccccc2)=C1C(=O)c1ccc(Cl)c(OCCn2cnnn2)c1Cl
7,120 °C,CC1CN(CCCCC(c2ccc(F)cc2)c2ccc(F)cc2)CCN1CC(=O)Nc1c(Cl)cc(NC(N)=O)cc1Cl (stereo not given)
8,132 to 136 °C,O=C(/C=C/c1ccc(O)cc1Cl)CC(=O)/C=C/c1cc(O)ccc1[N+](=O)[O-]
9,172 to 174 °C,O=C1CCNC(=O)C1C(=O)c1ccc(Cl)c(Cl)c1 (stereo not given)
10,275 °C,NS(=O)(=O)c1cccc(NC(=O)c2cnn3c(C(F)(F)F)cc(-c4ccc(F)c(F)c4)nc23)c1
11,173 to 174 °C,CC1=C(C(=O)OC(C)(C)C)C(c2cc(Br)ccc2F)C(C(=O)OC(C)(C)C)=C(C)N1
12,132 to 134 °C,O=Cc1c(-c2ccc(F)cc2)n(CCF)c(=O)c2ccccc12
13,134 to 148 °C,CN(C)CCCCCCNCc1ccc(-c2cc3ncnc(Nc4ccc5[nH]ccc5c4)c3s2)cc1
14,131 to 132 °C,O=C(c1ccc(-n2cncn2)cc1)N1CCC(NCCc2ccc(Cl)cc2)CC1
15,223 °C,Cc1ccc2c(c1)C=Cc1cc(C)ccc1C2c1cn(-c2ccnc(NCC(=O)Nc3nc(CC(=O)O)cs3)n2)c(=O)[nH]c1=O
16,113 to 115 °C,C#CCOc1cc(NC(=O)C2NCC3CC32)c(F)cc1Cl (stereo not given)
17,80 °C,CCOC(=O)[C@H](CCC1CCCCC1)N[C@@H]1COc2ccccc2N(Cc2ccc(C(C)C)cc2)C1=O
18,235 to 237 °C,CC1CN(c2n[nH]c(-c3ccc(Cl)cc3)c2-c2ccncc2)CCN1 (stereo not given)
19,132 to 135 °C,CC(C)NC(=NC(=Nc1ccccc1)N1CCOCC1)C(C)C
20,127 to 129 °C,CCOC(=O)C1(NS(=O)(=O)c2ccc3c(Cl)cnc(Cl)c3c2)CCCC1
21,120 to 121 °C,COC(=O)NC1CCc2sc(Cl)cc2C1 (stereo not given)
22,163 to 165 °C,COc1ccc(CNc2c3c(nc4ccccc24)CCCC3O)cc1 (stereo not given)
